Key:
[1] = system: Norm. brain; experiment: In vivo play-off phage auditioning, normal brain; set-up: species or system athymic nude mice; conditions: phage-displayed peptide; equimolar mix, i.v. 1 × 10^10 pfu/mouse, 2 h circulation, perfusion; Ion-Torrent sequencing; mean, N = 3 mice
Protocol: (§1) In vivo play-off was used for internally controlled and competitive systemic phage homing studies in mice bearing tumor xenografts. Phages displaying the candidate TNC-C binding peptides and control peptides were individually amplified and purified by precipitation with PEG-8000 (Sigma-Aldrich, St. Louis, MO, USA), followed by […] gradient ultracentrifugation and dialysis. The phages were pooled at equimolar representation (Table 1 for details) and injected iv at 1 × 10^10 pfu (in 200 µl PBS) in tumor-bearing mice, circulated for 2 h, followed by anesthesia and intracardial perfusion with DMEM. The tumors and organs were collected in lysogeny broth (LB) medium containing 1% NP40, and the tissues were homogenized using a hand-held homogenizer. Phages in the tissue lysate were amplified in E.coli, purified by precipitation with PEG-8000, and DNA was extracted using a DNA extraction kit (High Pure PCR Template Preparation Kit; Roche, Basel, Switzerland). Next-generation sequencing of phage genomic DNA with Ion Torrent system (Thermo Fisher Scientific, Waltham, MA, USA) was used to evaluate the representation of each peptide-phage in the input mixture, in tumors and control organs. The FASTQ data from Ion Torrent were processed using a custom python script that identified the barcodes, constant flanking residues, and extracted the reads of the correct length.

[2] = system: recombinant TNC-C; experiment: Cell-free phage binding to TNC-C; set-up: species or system human; conditions: individual T7 phage clones; Ni-NTA magnetic beads coated with hexahistidine-tagged TNC-C
Protocol: For biopanning on recombinant human TNC-C, we used NNK-encoded CX7C and X7 peptide T7 phage libraries with diversity ~5 × 10^8. Throughout our screens, the selected phages were amplified following plate amplification protocol. The 1st and 4th rounds of biopanning were performed on TNC-C immobilized on Costar 96-Well ELISA plate (#3590, Corning Life Sciences, Tewksbury, MA, USA). Briefly, the multiwell plates were coated with 20 µg/ml recombinant TNC-C in 100 µl of PBS overnight at 4 °C, followed by blocking with 1% bovine serum albumin (BSA) in PBS overnight at 4 °C. The phage library (5 × 10^8 pfu in 100 µl of PBS-BSA) was incubated overnight at 4 °C, followed by 6 washes with PBS containing 1% BSA and 0.1% Tween-20 (washing buffer) to remove background phages, and by phage rescue and amplification in E. coli strain BLT5403 (Novagen, EMD Biosciences, MA, USA)[8]. The subsequent rounds of selection were performed on Ni-NTA Magnetic Agarose Beads (QIAGEN, Hilden, Germany) coated with His-6X tagged TNC-C (30 µg/10 µl beads) at room temperature for 1 h in 400 µl of PBS. The TNC-C beads were washed 3 times with washing buffer, followed by incubation with phages in (5 × 10^8 pfu in 100 µl in washing buffer) at room temperature for 1 h. The background phages were removed by rinsing 6 times with washing buffer, and the bound phages were eluted with 1 ml of PBS containing 500 mM Imidazole and 0.1% NP40.
The eluted phages were titered and amplified for a next round of selection. After 5 rounds of selection, peptide-encoding DNA from a set of 48 phage clones was subjected to Sanger sequencing of peptide-encoding phage DNA[18],[22]. For cell-free binding studies with individual phage clones were incubated with Ni-NTA magnetic beads coated with hexahistidine-tagged TNC-C as above. RPARPAR phage binding to NRP-1-coated beads was used as a positive control. Phage clones displaying heptaglycine peptide (GGGGGGG, G7), or insertless phage clones were used as negative controls. […]
Fig. S13. NRP -1-dependent internalization of PL3 -functionalized AgNPs […]
Supplementary Materials and Methods
Cloning, expression , and purification of TNC-C
Vector Construction. A pF1K (Promega, # FXC00319) derivative plasmid containing full -length cDNA of TNC was used for PCR amplification of cDNA region of TNC-C with Phusion Hot Start II High -Fidelity DNA Polymerase (Thermo Fisher Scientific Inc # F -537L; primer pairs:
5′- CTCCTCT […] -3′ and 5′ -
CAGACA CTCGAG TTATCA TGTAACAATCTC -3′ for domain TNC -C. NdeI and XhoI restriction sites underlined ). The fragments were cloned in the pET28a+ plasmid for TNC -C expression as a n N-terminally His -tagged protein .
Expression and purification of TNC-C. The pET28a+ TNC-C plasmid was used for transformation of E. coli BL21 Rosetta 2 (DE3) pLysS cells (Novagen, #70956). The protein expression was induced by addition of isopropyl β-D-1-thiogalactopyranoside (IPTG) (Sigma, # I6758) to 0.5 mM final concentration and the bacteria were culture d at 18 °C for 16h . Cells were […]
collected by centrifugation, resuspended in ice-cold IMAC buffer (25mM Tris-HCl, 400mM NaCl, 25mM imidazole pH 8, containing EDTA-free protease inhibitor cocktail and DNase I) and lysed by sonification (Bandelin Sonopuls HD 2070, Germany). The cleared bacterial lysate was purified using HiTrap IMAC HP column s (GE Healthcare # 17 -0920-05) on ÄKTA purification system (GE Healthcare ), and the eluate was dialyzed against PBS using 3.5 kDa cut - off 3mL Slide-A-Lyzer Dialysis Cassettes (Thermo Scientific #66330). TNC-C concentration was determined by bicinchoninic acid assay (Thermo Scientific #23227) , and the purity of the proteins was assessed by SDS -PAGE. Mass spectrometry and de novo peptide sequencing were used to confirm the size and sequence of the purified proteins . His-tagged NRP-1 b1b2 domain was expressed and purified as described (Teesalu et al., 2009) .
Single-chain antibodies: The cDNA sequences encoding TNC-C-G11-scFV were retrieved from […]

[3] = system: P13; experiment: In vivo play-off phage auditioning, P13 tumor; set-up: species or system P13 glioblastoma in athymic nude mice; conditions: phage-displayed peptide; equimolar mix, i.v. 1 × 10^10 pfu/mouse, 2 h circulation, perfusion; Ion-Torrent sequencing; mean, N = 3 mice
Protocol: (§2) Athymic nude mice (Hsd/Athymic Fox1 nu Harlan) were purchased from Envigo (Netherlands) and maintained under standard housing conditions of the Animal Facility of the Institute of Biomedicine and Translational Medicine, University of Tartu (Tartu, Estonia). For orthotropic GBM tumor models, we used NCH421K, P13, and P3 stem cell-like, WT-GBM cells. The individual GBM cells around 2–3 × 10^5 in 3 μL PBS were intracranially implanted into mice brain 2 mm right and 1 mm anterior to the bregma. U87-MG and PC3 subcutaneous models were induced by injecting 2–9 × 10^6 cells in 100 µl PBS subcutaneously into the right flank of 11–15 week old male and female nude mice. All animal experiments were performed in accordance with the procedures approved by the Committee of Animal Experimentation of Estonian Ministry of Agriculture, permits #42 and #48.
as §1

[4] = system: WT-GBM; experiment: In vivo play-off phage auditioning, WT-GBM tumor; set-up: species or system murine WT-GBM glioblastoma in athymic nude mice; conditions: phage-displayed peptide; equimolar mix, i.v. 1 × 10^10 pfu/mouse, 2 h circulation, perfusion; Ion-Torrent sequencing; mean, N = 3 mice
Protocol: as §2, §1

[5] = system: PC3; experiment: In vivo play-off phage auditioning, PC3 tumor; set-up: species or system prostate carcinoma in athymic nude mice; conditions: phage-displayed peptide; equimolar mix, i.v. 1 × 10^10 pfu/mouse, 2 h circulation, perfusion; Ion-Torrent sequencing; mean, N = 3 mice
Protocol: as §2, §1

[6] = system: P3 SCL; experiment: In vivo play-off phage auditioning, P3 SCL tumor; set-up: species or system P3 stem cell-like glioblastoma in athymic nude mice; conditions: phage-displayed peptide; equimolar mix, i.v. 1 × 10^10 pfu/mouse, 2 h circulation, perfusion; Ion-Torrent sequencing; mean, N = 3 mice
Protocol: as §2, §1

[7] = system: U87-MG; experiment: In vivo play-off phage auditioning, U87-MG tumor; set-up: species or system human glioblastoma in athymic nude mice; conditions: phage-displayed peptide; equimolar mix, i.v. 1 × 10^10 pfu/mouse, 2 h circulation, perfusion; Ion-Torrent sequencing; mean, N = 3 mice
Protocol: as §2, §1

With AGRGRLVRAKLAAALE [Clone-5] the “Representation of phage in control brain tissue (Norm. brain)” value (from here on “Representation of phage … (Norm. brain)”) [1] was 0.0 fold G7 control phage, the “TNC-C binding (fold G7 control phage)” value [2] was 5785 fold G7 control phage and the “Representation of phage in tumors, P13” value [3] was 0.1 fold G7 control phage. For the same substance, the “Representation of phage in tumors, WT-GBM” value (from here on “Representation … WT-GBM”) [4] was 23.9 fold G7 control phage, the “Representation of phage in tumors, PC3” value [5] was 0.3 fold G7 control phage and the “Representation of phage in tumors, P3 SCL” value (from here on “Representation … P3 SCL”) [6] was 0.4 fold G7 control phage. The “Representation of phage in tumors, U87-MG” value (from here on “Representation … U87-MG”) [7] was 0.2 fold G7 control phage.

In the case of AGVGRLRRAKLAAALE [Clone-1], the “Representation of phage … (Norm. brain)” value [1] is reported as 0.2 fold G7 control phage, the “TNC-C binding (fold G7 control phage)” value [2] is reported as 3259 fold G7 control phage and the “Representation of phage in tumors, P13” value [3] is reported as 0.9 fold G7 control phage. For the same substance, the “Representation … WT-GBM” value [4] was 2.3 fold G7 control phage, the “Representation of phage in tumors, PC3” value [5] was 1.4 fold G7 control phage and the “Representation … P3 SCL” value [6] was 0.9 fold G7 control phage. For the same substance, the “Representation … U87-MG” value [7] was 1.0 fold G7 control phage.

In the case of AVRGRLRVAKLAAALE [Clone-3], the “Representation of phage … (Norm. brain)” value [1] is reported as 0.1 fold G7 control phage, the “Representation of phage in tumors, P13” value [3] is reported as 0.6 fold G7 control phage and the “Representation … WT-GBM” value [4] is reported as 1.3 fold G7 control phage. The “Representation of phage in tumors, PC3” value [5] was 1.0 fold G7 control phage, the “Representation … P3 SCL” value [6] was 0.6 fold G7 control phage and the “Representation … U87-MG” value [7] was 0.8 fold G7 control phage.

For CAGRGRLVRC [Modified clone-5], the “Representation of phage … (Norm. brain)” value [1] was 0.0 fold G7 control phage, the “Representation of phage in tumors, P13” value [3] was 0.4 fold G7 control phage and the “Representation … WT-GBM” value [4] was 0.9 fold G7 control phage. The “Representation of phage in tumors, PC3” value [5] was 0.4 fold G7 control phage, the “Representation … P3 SCL” value [6] was 0.2 fold G7 control phage and the “Representation … U87-MG” value [7] was 0.1 fold G7 control phage.

With CQRMGVVGAKLAAALE [Clone 36] the “TNC-C binding (fold G7 control phage)” value [2] was 3928 fold G7 control phage.

With CRGVLRRAKLAAALE [Clone-2] the “Representation of phage … (Norm. brain)” value [1] was 0.1 fold G7 control phage, the “TNC-C binding (fold G7 control phage)” value [2] was 5955 fold G7 control phage and the “Representation of phage in tumors, P13” value [3] was 0.4 fold G7 control phage. The “Representation … WT-GBM” value [4] was 1.6 fold G7 control phage, the “Representation of phage in tumors, PC3” value [5] was 0.9 fold G7 control phage and the “Representation … P3 SCL” value [6] was 0.4 fold G7 control phage. For the same substance, the “Representation … U87-MG” value [7] was 0.7 fold G7 control phage.

With CSRRGILRAKPAAALE [Clone-4] the “Representation of phage … (Norm. brain)” value [1] was 0.1 fold G7 control phage, the “TNC-C binding (fold G7 control phage)” value [2] was 4889 fold G7 control phage and the “Representation of phage in tumors, P13” value [3] was 0.8 fold G7 control phage. The “Representation … WT-GBM” value [4] was 1.5 fold G7 control phage, the “Representation of phage in tumors, PC3” value [5] was 1.2 fold G7 control phage and the “Representation … P3 SCL” value [6] was 0.9 fold G7 control phage. The “Representation … U87-MG” value [7] was 1.1 fold G7 control phage.

With “GGGGGGG [heptaglycine control phage, reference compound]” the “Representation of phage … (Norm. brain)” value [1] was 1 fold G7 control phage, the “Representation of phage in tumors, P13” value [3] was 1.0 fold G7 control phage and the “Representation … WT-GBM” value [4] was 1.0 fold G7 control phage. The “Representation of phage in tumors, PC3” value [5] was 1.0 fold G7 control phage, the “Representation … P3 SCL” value [6] was 1.0 fold G7 control phage and the “Representation … U87-MG” value [7] was 1.0 fold G7 control phage.

With GRLTRVR [Clone-46] the “Representation of phage … (Norm. brain)” value [1] was 0.1 fold G7 control phage, the “TNC-C binding (fold G7 control phage)” value [2] was 115 fold G7 control phage and the “Representation of phage in tumors, P13” value [3] was 0.5 fold G7 control phage. For the same substance, the “Representation … WT-GBM” value [4] was 1.9 fold G7 control phage, the “Representation of phage in tumors, PC3” value [5] was 0.9 fold G7 control phage and the “Representation … P3 SCL” value [6] was 0.5 fold G7 control phage. For the same substance, the “Representation … U87-MG” value [7] was 0.9 fold G7 control phage.

RGRLRRVE [Clone 44] was tested, and the “TNC-C binding (fold G7 control phage)” value [2] was 886 fold G7 control phage.

With RGRLVRAK [Modified clone-5] the “Representation of phage … (Norm. brain)” value [1] was 0.2 fold G7 control phage, the “Representation of phage in tumors, P13” value [3] was 0.1 fold G7 control phage and the “Representation … WT-GBM” value [4] was 23.8 fold G7 control phage. For the same substance, the “Representation of phage in tumors, PC3” value [5] was 3.0 fold G7 control phage, the “Representation … P3 SCL” value [6] was 0.3 fold G7 control phage and the “Representation … U87-MG” value [7] was 0.5 fold G7 control phage.
